# Measured values: PMC11940194, “Synthesis, Antiproliferative Activity, and ADME Profiling of Novel Racemic and Optically Pure Aryl-Substituted Purines and Purine Bioisosteres” (Biomolecules, 2025)
# Experiments:
# Type in all cases: cell-based, human
# [1] = test system: colorectal carcinoma (HT-29) cells; assay: Antiproliferative MTT assay, HT-29; conditions: for IC50: Homo sapiens, HT-29, 72 h, 72 h incubation, MTT, mean ± SD; for SI (HT-29): SI = [IC50 HFF]/[IC50 HT-29]
# Description: (§1) The human ATCC tumor cell lines breast adenocarcinoma (MCF7), colorectal carcinoma (HT-29), pancreatic ductal adenocarcinoma (CFPAC-1), hepatocellular carcinoma (HepG2), and normal skin fibroblasts (HFF) derived from ATCC (American Type Culture Collection) were cultured in Dulbecco’s Modified Eagle Medium (DMEM) or Minimum Essential Medium (MEM) supplemented with 10% fetal bovine serum (FBS), 2 mM L-glutamine, 100 U/mL penicillin, and 100 µg/mL streptomycin (Lonza, Basel, Switzerland) in a humidified atmosphere with 5% CO2 at 37 °C. For the experiment, carcinoma cell lines and normal human cell lines were seeded in 96-well microtiter plates at a density of 3000 cells per well and 5000 cells per well, respectively, depending on the doubling time of the specific cell line. The test substances were then added at fivefold, tenfold dilutions (0.01 to 100 µM), freshly prepared in the growth medium on the day of testing, and incubated for a further 72 h. After 72 h of incubation, the growth rate of the cells was determined using the MTT assay according to the manufacturer’s guidelines. […] The IC50 values were calculated from the dose–response curves using linear regression analysis. The experiment was performed in tetraplicates in two individual experiments.
# (§2) Newly synthesized compounds were evaluated for their cytotoxic activity in vitro against four human cancer cell lines, including human breast adenocarcinoma (MCF-7), ductal pancreatic adenocarcinoma (CFPAC-1), colorectal carcinoma (HT-29), and hepatocellular carcinoma (HepG2), as well as on non-cancerous skin fibroblasts (HFF-1), to check for non-specific toxicity. Furthermore, 5-Fluorouracil (5-FU) was used as a reference drug. The results are expressed as 50% inhibitory concentration (IC50) values and are listed in Table 2, Table 3, Table 4 and Table 5.
# [2] = test system: pancreatic ductal adenocarcinoma (CFPAC-1) cells; assay: Antiproliferative MTT assay, CFPAC-1; conditions: for IC50: Homo sapiens, CFPAC-1, 72 h, 72 h incubation, MTT, mean ± SD; for SI (CFPAC-1): SI = [IC50 HFF]/[IC50 CFPAC-1]
# Description: as §1, §2
# [3] = test system: hepatocellular carcinoma (HepG2) cells; assay: Antiproliferative MTT assay, HepG2; conditions: for IC50: Homo sapiens, HepG2, 72 h, 72 h incubation, MTT, mean ± SD; for SI (HepG2): SI = [IC50 HFF]/[IC50 HepG2]
# Description: as §1, §2
# [4] = test system: breast adenocarcinoma (MCF7) cells; assay: Antiproliferative MTT assay, MCF-7; conditions: for IC50: Homo sapiens, MCF7, 72 h incubation, MTT, mean ± SD; for SI (MCF-7): SI = [IC50 HFF]/[IC50 MCF-7]
# Description: as §1, §2
# [5] = test system: normal skin fibroblasts (HFF-1); assay: Cytotoxicity MTT assay, normal skin fibroblasts; conditions: Homo sapiens, HFF-1, 72 h, 72 h incubation, mean ± SD
# Description: as §1, §2
Compound,IC50 [1],IC50 [2],IC50 [3],IC50 [4],SI (HT-29) [1],SI (HepG2) [3],IC50 [5],SI (CFPAC-1) [2],SI (MCF-7) [4]
O[C@@H](Cn1cc(Cn2cnc3c(Cl)ncnc32)nn1)c1ccc(Cl)cc1 [Compound (R)-38b],51 ± 17.8 µM,60 ± 10.3 µM,39 ± 10.5 µM,64 ± 4.8 µM,0.6,0.8,31 ± 13.4 µM,–,–
"OCC(c1ccc(F)cc1)n1cc(Cn2cnc3c(Cl)ncnc32)nn1 (centres unmarked) [Compound 37a, 6-Chloro-9-((1-(2-hydroxy-1-(4-fluorophenyl)ethyl)-1H-1,2,3-triazol-4-yl)methyl)-9H-purine]",41 ± 2.3 µM,50 ± 12.4 µM,37 ± 12.9 µM,38 ± 15.7 µM,1.6,1.7,64 ± 6.3 µM,–,–
"OC(Cn1cc(Cn2cnc3c(Cl)ncnc32)nn1)c1ccccc1 (centres unmarked) [Compound 36b, 6-Chloro-9-((1-(2-hydroxy-2-phenylethyl)-1H-1,2,3-triazol-4-yl)methyl)-9H-purine]",61 ± 2.4 µM,65 ± 18.9 µM,41 ± 10.6 µM,69 ± 10.6 µM,1.3,1.9,80 ± 14 µM,–,–
"O[C@@H](Cn1cc(Cn2ccc3c(Cl)ncnc32)nn1)c1ccc(Cl)cc1 [Compound (R)-43b, (R)-4-Chloro-7-((1-(2-hydroxy-2-(4-chlorophenyl)ethyl)-1H-1,2,3-triazol-4-yl)methyl)-7H-pyrrolo[2,3-d]pyrimidine]",48 ± 4.8 µM,32 ± 16.1 µM,26 ± 8.2 µM,35 ± 1.9 µM,–,–,20 ± 6.5 µM,0.6,0.6
"OC(Cn1cc(Cn2cnc3c(Cl)ncnc32)nn1)c1ccc(F)cc1 (centres unmarked) [Compound 37b, 6-Chloro-9-((1-(2-hydroxy-2-(4-fluorophenyl)ethyl)-1H-1,2,3-triazol-4-yl)methyl)-9H-purine]",46 ± 9.9 µM,56 ± 5.5 µM,54 ± 6 µM,49 ± 9.9 µM,1.3,1.1,59 ± 9.2 µM,–,–
"OCC(c1ccc(F)cc1)n1cc(Cn2cnc3c(Cl)nccc32)nn1 (centres unmarked) [Compound 47a, 4-Chloro-1-((1-(2-hydroxy-1-(4-fluorophenyl)ethyl)-1H-1,2,3-triazol-4-yl)methyl)-1H-imidazo[4,5-c]pyridine]",> 100 µM,51 ± 6.5 µM,> 100 µM,63 ± 8.4 µM,–,–,75 ± 14.2 µM,–,–
"O[C@@H](Cn1cc(Cn2cnc3c(Cl)ncnc32)nn1)c1ccccc1 [Compound (R)-36b, (R)-6-Chloro-9-((1-(2-hydroxy-2-phenylethyl)-1H-1,2,3-triazol-4-yl)methyl)-9H-purine]",86 ± 11.6 µM,66 ± 3.2 µM,57 ± 9.7 µM,61 ± 3.7 µM,>1.2,>1.8,> 100 µM,–,–
"OCC(c1ccc(F)cc1)n1cc(Cn2cnc3ccccc32)nn1 (centres unmarked) [Compound 32a, 1-((1-(2-Hydroxy-1-(4-fluorophenyl)ethyl)-1H-1,2,3-triazol-4-yl)methyl)-1H-benzimidazole]",> 100 µM,> 100 µM,74 ± 0.6 µM,98 ± 2.8 µM,–,–,> 100 µM,–,–
"O[C@@H](Cn1cc(Cn2cnc3c(Cl)ncnc32)nn1)c1ccc(F)cc1 [Compound (R)-37b, (R)-6-Chloro-9-((1-(2-hydroxy-2-(4-fluorophenyl)ethyl)-1H-1,2,3-triazol-4-yl)methyl)-9H-purine]",> 100 µM,> 100 µM,64 ± 3.1 µM,> 100 µM,–,0.6,35 ± 5.5 µM,–,–
"OCC(c1ccc(F)cc1)n1cc(Cn2ccc3ccccc32)nn1 (centres unmarked) [Compound 27a, 1-((1-(2-Hydroxy-1-(4-fluorophenyl)ethyl)-1H-1,2,3-triazol-4-yl)methyl)-1H-indole]",47 ± 16.9 µM,68 ± 12.7 µM,49 ± 2.5 µM,51 ± 6.7 µM,–,–,42 ± 10.5 µM,0.6,–
"OC(Cn1cc(Cn2cnc3ccccc32)nn1)c1ccc(Cl)cc1 (centres unmarked) [Compound 33b, 1-((1-(2-Hydroxy-2-(4-chlorophenyl)ethyl)-1H-1,2,3-triazol-4-yl)methyl)-1H-benzimidazole]",> 100 µM,69 ± 12.1 µM,> 100 µM,70 ± 20.5 µM,–,–,64 ± 6.17 µM,0.9,–
"O[C@@H](Cn1cc(Cn2ccc3c(Cl)ncnc32)nn1)c1ccccc1 [Compound (R)-41b, (R)-4-Chloro-7-((1-(2-hydroxy-2-phenylethyl)-1H-1,2,3-triazol-4-yl)methyl)-7H-pyrrolo[2,3-d]pyrimidine]",46 ± 2.3 µM,58 ± 12.1 µM,52 ± 2.7 µM,46 ± 2.7 µM,–,–,23 ± 5.8 µM,0.4,0.5
"O[C@@H](Cn1cc(Cn2ccc3c(Cl)ncnc32)nn1)c1ccc(C(F)(F)F)cc1 [Compound (R)-45b, (R)-4-Chloro-7-((1-(2-hydroxy-2-(4-(trifluoromethyl)phenyl)ethyl)-1H-1,2,3-triazol-4-yl)methyl)-7H-pyrrolo[2,3-d]pyrimidin]",45 ± 4 µM,49 ± 8.7 µM,38 ± 7.6 µM,43 ± 4.6 µM,–,–,21 ± 3.8 µM,0.4,0.5

# Molecules with a lower IC50 [1], results first:
IC50 [1],IC50 [2],IC50 [3],IC50 [4],Compound,SI (HT-29) [1],SI (HepG2) [3],IC50 [5],SI (CFPAC-1) [2],SI (MCF-7) [4]
33 ± 6.1 µM,–,33 ± 4.2 µM,24 ± 8.8 µM,"OCC(c1ccc(Cl)cc1)n1cc(Cn2ccc3c(Cl)ncnc32)nn1 (centres unmarked) [Compound 43a, 4-Chloro-7-((1-(2-hydroxy-1-(4-chlorophenyl)ethyl)-1H-1,2,3-triazol-4-yl)methyl)-7H-pyrrolo[2,3-d]pyrimidine]",–,–,41 ± 16.3 µM,5.1,1.7
39 ± 1.9 µM,36 ± 2.2 µM,47 ± 13.5 µM,39 ± 16.9 µM,"OCC(c1ccc(F)cc1)n1cc(Cn2ccc3c(Cl)ncnc32)nn1 (centres unmarked) [Compound 42a, 4-Chloro-7-((1-(2-hydroxy-1-(4-fluorophenyl)ethyl)-1H-1,2,3-triazol-4-yl)methyl)-7H-pyrrolo[2,3-d]pyrimidine]",–,–,51 ± 16.5 µM,1.4,1.3
28 ± 1.9 µM,9 ± 3.3 µM,32 ± 3.6 µM,21 ± 1.6 µM,"OCC(c1ccc(C(F)(F)F)cc1)n1cc(Cn2ccc3ccccc32)nn1 (centres unmarked) [Compound 30a, 1-((1-(2-Hydroxy-1-(4-(trifluoromethyl)phenyl)ethyl)-1H-1,2,3-triazol-4-yl)methyl)-1H-indole]",–,–,34 ± 1.6 µM,3.7,–
33 ± 6.06 µM,48 ± 4.9 µM,34 ± 4.2 µM,24 ± 8.8 µM,"OCC(c1ccc(Cl)cc1)n1cc(Cn2cnc3c(Cl)ncnc32)nn1 (centres unmarked) [Compound 38a, 6-Chloro-9-((1-(2-hydroxy-1-(4-chlorophenyl)ethyl)-1H-1,2,3-triazol-4-yl)methyl)-9H-purine]",1.2,1.2,41 ± 16.3 µM,–,–
24 ± 2.9 µM,65 ± 5.4 µM,45 ± 1.9 µM,73 ± 2.9 µM,"O[C@H](Cn1cc(Cn2cnc3c(Cl)ncnc32)nn1)c1ccc(F)cc1 [Compound (S)-37b, (S)-6-Chloro-9-((1-(2-hydroxy-2-(4-fluorophenyl)ethyl)-1H-1,2,3-triazol-4-yl)methyl)-9H-purine]",2.9,1.6,70 ± 19.5 µM,–,–
33 ± 0.2 µM,13 ± 2.7 µM,49 ± 2 µM,41 µM,"O[C@H](Cn1cc(Cn2ccc3c(Cl)ncnc32)nn1)c1ccc(F)cc1 [Compound (S)-42b, (S)-4-Chloro-7-((1-(2-hydroxy-2-(4-fluorophenyl)ethyl)-1H-1,2,3-triazol-4-yl)methyl)-7H-pyrrolo[2,3-d]pyrimidine]",–,–,73 ± 2.4 µM,5.6,1.8
31 ± 0.9 µM,30 ± 0.6 µM,32 ± 0.2 µM,32 µM,"OCC(c1ccc(Cl)cc1)n1cc(Cn2ccc3ccccc32)nn1 (centres unmarked) [Compound 28a, 1-((1-(2-Hydroxy-1-(4-chlorophenyl)ethyl)-1H-1,2,3-triazol-4-yl)methyl)-1H-indole]",–,–,42 ± 4.6 µM,1.4,–
33 ± 3.2 µM,33 ± 4.5 µM,38 ± 1.8 µM,39 ± 7.1 µM,"OCC(c1ccccc1)n1cc(Cn2ccc3c(Cl)ncnc32)nn1 (centres unmarked) [Compound 41a, 4-Chloro-7-((1-(2-hydroxy-1-phenylethyl)-1H-1,2,3-triazol-4-yl)methyl)-7H-pyrrolo[2,3-d]pyrimidine]",–,–,62 ± 23.3 µM,1.9,1.6
